One compound from patent US11104647B2, “Multi-functional, stimuli-responsive materials, methods of preparation, methods of use, and uses thereof” (ADA Foundation, priority 2016, dated 2021) can be followed below.

As a reminder, the MBC is the smallest concentration meeting the test's criterion for killing. High values mean less potent killing, low ones more potent killing. The pKa is the pH at which an ionisable group is half protonated.

Data set [1] relates to E. coli. In words: Minimum bactericidal concentration (MBC) determination by agar colony formation. The class given is cell-based, Escherichia coli (E. coli, K12). The following applies: for MBC: Escherichia coli, 0.75 h, 45 min treatment. The procedure:
(§1) Azo-QPS-C16 was effective on both […] bacteria. The ability of bacteria to proliferate after exposure to Azo-QPS-C16 was characterized by adding growth medium and measuring the optical density (OD) at 600 nm every 15 minutes in pH 4.1, 5.8, and 7.9 buffer. […] However, exposure at pH 7.9 required a much higher concentration (40 μg/mL) to inhibit cell growth. […] The pH dependence of bactericidal activity of Azo-QPS-C16 in terms of minimum bactericidal concentration (MBC) was evaluated by inoculating cultures onto a Lysogeny Broth (LB) agar plate after treating the cells with a twofold dilution series of Azo-QPS-C16.
(§2) Bacterial strains and growth conditions. Streptococcus mutans (S. mutans, UA159) and Escherichia coli (E. coli, K12) were purchased from ATCC (American Type Culture Collection, Manassas, Va., USA). Todd Hewitt Broth (THB), and Lysogeny Broth (LB) powder and agar were purchased from BD (Becton, Dickinson and Company, Franklin Lakes, N.J., USA). Planktonic cultures were inoculated from 25% (by volume) glycerol frozen stocks stored at −80° C. E. coli cultures were grown in LB at 37° C. in a shaker-incubator. S. mutans cultures were grown in THB at 37° C. with 5% (by volume) CO2 overnight.
(§3) Bacterial growth curves. Overnight cultures of E. coli and S. mutans were diluted directly into buffers with different pH values (100 mmol/L, pH 4.1 sodium acetate buffer, pH 5.8 sodium phosphate buffer, and pH 7.9 sodium phosphate buffer) to an optical density at 600 nm (OD600) of approximately 0.001.
(§4) In a 96-well plate, 2 μL of Azo-QPS-C16 at various concentrations in dimethyl sulfoxide (DMSO) were added to 98 μL of bacteria suspension per well for a final concentration ranging from a 2-fold dilution series between 40 to 1.25 μg/mL of Azo-QPS-C16. After 45 minutes of treatment at room temperature, 10 μL from each well was transferred to a new 96-well plate already containing 100 μL growth media per well to measure the growth curves. E. coli were cultured at 37° C., and the OD600 of each well was measured by a Tecan Spark microplate reader (Männedorf, Switzerland) every 15 minutes for up to 19 hours, with 30 seconds shaking before each measurement. S. mutans were grown at 37° C. with 5% CO2, and the OD600 of each well was measured periodically using a Molecular Devices (Sunnyvale, Calif.) SpectraMax M5 microplate reader. All experiments were conducted in triplicate and repeated at least three times on different days.
(§5) Minimum bactericidal concentration (MBC) determination. MBC values were determined by agar colony formation. […] 5 μL of the suspended cells from each well were spotted onto an agar plate and incubated for 48 hours to allow colony formation, and the presence or absence of bacterial growth was determined by naked eye. […]

For a further data set, the system named is S. mutans. The data set is described as above. The data set is classed as cell-based, Streptococcus mutans (S. mutans, UA159). As to conditions: for MBC: Streptococcus mutans, 0.75 h, 45 min treatment. Here is the method:
as §1, §2, §3, §4, §5

Data set [2] concerns E. coli. In words: Bacterial growth curves (OD600) after exposure in buffer. The data set is classed as cell-based, Escherichia coli (E. coli, K12). Here is the method:
as §1
Bacterial strains and growth conditions. […]
as §4, with “After 45 minutes of treatment at room temperature, 10 μL from each well was transferred to a new 96-well plate already containing 100 μL growth media per well to measure the growth curves.” left out, “All experiments were conducted in triplicate and repeated at least three times on different days.” left out

Another data set in a line: pKa. The class given is physicochemical.
Data set [3] in a line: Dynamic light scattering (DLS) of pH-dependent assembly. The data set is classed as physicochemical. The procedure: Particles with an average hydrodynamic diameter of 51±19 nm formed in mildly basic conditions, occurring simultaneously with the appearance of the absorbance peak at 554 nm. […] One cycle corresponds to the addition of a base and an acid. In base and acid, respectively, the absorbance at 554 nm increased and then decreased, and the particles formed and disassembled.
Dynamic light scattering (DLS) was performed using a Nicomp 380 ZLS DLS system (Particle Sizing Systems Inc., Santa Barbara, Calif.). Samples were contained in disposable glass culture tubes. Prior to sample loading, the tubes were blown with nitrogen gas and filled with 0.4 mL of a dye sample. The tubes were sealed using parafilm and then centrifuged at 14,000 rpm (19,000 g) for 5 minutes to separate larger particles. Samples were placed in the instrument and allowed to attain thermal equilibrium. An autocorrelation function was acquired for 3 minutes at 173° scattering angle. A Laplace inversion-based Nicomp routine was used to find the distribution of decay rates. The decay rates are linked to the effective sphere hydrodynamic diameters by the appropriate equations. The size distribution is reported as a discrete set of diameter bins and corresponding intensity weighted fractions as probabilities assigned to diameter bins.

The next data set in a line: Solubility in water. The class given is physicochemical.

With `C=C(C)C(=O)Oc1ccc(/N=N/c2cc[n+](CCCCCCCCCCCCCCCC)cc2)cc1.[Br-]` [Azo-QPS-C16, (E)-1-hexadecyl-4-((4-(methacryloyloxy)phenyl)diazenyl)-pyridinium bromide], the MBC in the data set with E. coli [1] (pH 4.1 buffer) turned out to be 2.5 µg/mL; in the data set with E. coli [1] (pH 5.8 buffer) it was 10 µg/mL; against E. coli [1] (pH 7.9 buffer), 40 µg/mL; against S. mutans (pH 4.1 buffer), 1.25 µg/mL; in the data set on S. mutans (pH 5.8 buffer), 5 µg/mL; against S. mutans (pH 7.9 buffer), 10 µg/mL. In addition, the “Difference in MBC between pH 4.1 and pH 7.9” value with E. coli [1] (more effective at pH 4.1) was found to be 16 fold. Further, the “Difference in MBC, acidic vs mildly basic conditions (pH 4.1 vs pH 7.9)” value in the data set on S. mutans (more effective in acidic conditions) was found to be 8 fold. The “Concentration that fully inhibited E. coli growth” value in the data set on E. coli [2] (exposure at pH 4.1, growth followed up to 19 hours) is 2.5 µg/mL. Also, in the data set with E. coli [2] (exposure at pH 7.9), the “Concentration required to inhibit cell growth” value turned out to be 40 µg/mL. For the same compound, in “pKa”, the pKa is 5.3. In addition, the “Average hydrodynamic diameter of particles” value in data set [3] (mildly basic conditions) was found to be 51±19 nm. In addition, the Particle formation result in data set [3] (pH 4.1 buffer) is reported as “No particles were found”. The Solubility in water result in “Solubility in water” is given as “limited solubility in water”.
